Assay results taken from EP0768085A1, “ANTIBACTERIAL AGENT” (DAIICHI PHARMACEUTICAL CO., LTD., priority 1994, dated 1996).
Values after ≈ are worked out from the molar mass of the structure shown. Where two headings read alike, the source gives them in different places.

Columns and labels:
in vivo = conditions: mouse, oral administration, single dose, suspended in aqueous 0.5% CMC solution, male mice, observed for 14 days
Description: Acute toxicity (LD50) of a ketonitrile derivative of the present invention (Compound No. 4) was tested using male mice (Slc:ddY, 5 weeks old). To groups of each 5 mice, the compounds suspended in aqueous 0.5% CMC solution were forcibly dosed orally at a single time so that the final dosages of 707, 1,000, 1,414, and 2,000 mg/kg were attained. […] As a result, LD50 value under conditions of oral administration was estimated to be higher than 2,000 mg/kg. Thus, the compound was confirmed to be quite non-toxic.
To groups of each 5 mice, the compounds suspended in aqueous 0.5% CMC solution were forcibly dosed orally at a single time so that the final dosages of 500, 1,000, 1,500, and 2,000 mg/kg were attained. […] As a result, the LD50 value was estimated to be higher than 2,000 mg/kg. Thus, the compounds were confirmed to be quite non-toxic.

[1] = system: Staphylococcus aureus 209-P; experiment: Antibacterial activity (IC), Mueller-Hinton broth, 96-well microplate (Example 4, Table 39); format: cell-based; conditions: 37°C, 18 hours
In short: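 S. aureus 209-P at 10^6 CFU/ml in Mueller-Hinton broth, compound (DMSO/water) at final 100, 10 and 1 µg/ml, 18 h at 37°C. Growth inhibition scored by turbidity; IC reported as ≤100, ≤10 or ≤1 µg/ml bands.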

[2] = system: Staphylococcus aureus TI-1; experiment: Antibacterial activity (IC), broth microplate as in Example 4 (Example 5, Table 40); format: cell-based; conditions: TI1, 18 h
In short: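 S. aureus TI-1 at 10^6 CFU/ml in Mueller-Hinton broth exposed to compound at final 100, 10 and 1 µg/ml (DMSO/water stock), 37 °C for 18 h. Growth inhibition judged by turbidity; IC reported as ≤100, ≤10 or ≤1 µg/ml bands.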

[3] = system: Pasteurella multocida (Kobe-6); experiment: Antibacterial activity (IC), broth microplate as in Example 4 (Example 6, Table 41); format: cell-based; conditions: 18 h, origin pig
Description: A suitable amount of a sample was dissolved in dimethylsulfoxide (DMSO), and the resultant solution was diluted with the same amount of sterilized distilled water to prepare a bulk sample of 1,000 µg/ml. Mueller-Hinton broth (product of DIFCO) was dispensed into each well of 96-well microplate. Thereafter, the bulk specimen was added to the first well of a row, and successively diluted (10-fold each time) with sterilized distilled water. Separately, a bacterial cell suspension for the test (Staphylococcus aureus 209-P) which had been cultured in the above-mentioned broth overnight at 37°C was inoculated to each well so that the final inoculation amount of 10^6 CFU/ml was attained. The final concentrations of the samples were 100, 10, and 1 µg/ml.
The antibacterial action was evaluated by the inhibitory concentration (hereinafter abbreviated as IC) at which propagation of the bacteria cultured at 37°C for 18 hours was inhibited. Inhibition was determined by the turbidity of the medium. The expressions "IC≤100", "≤10", and "≤1" indicate that MIC-equivalent values obtained at the succesive […] dilution of the sample are 100-10 µg/ml, 10-1 µg/ml, and not more than 1 µg/ml, respectively. […] (In the subsequent Examples, the same rule applies correspondingly.) Table 39
In a manner similar to that described in Example 4, antibacterial activity of the invention compound was determined. The bacterium used for the test was Pasteurella Kobe-6 (origin: pig; Pasteurella multocida).

Pasteurella from cattle = experiment: MIC by agar plate dilution method (Example 9, Table 44); format: cell-based; conditions: 18 h
Description: (§1) Through use of a ketonitrile derivative of the present invention (Compound No. 4) as a sample, minimum inhibitory concentrations (MIC) of Staphylococcus aureus and Pasteurella from cattle were determined by an agar plate dilution method in accordance with the standard procedure authorized by Japan Chemotherapy Association ["Chemotherapy", 29, 76-79, 1981, under the heading "Revised Measurement of Minimum Inhibitory Concentration (MIC)"]. The samples were dissolved in dimethylsulfoxide and diluted with the same amount of sterilized distilled water to prepare a bulk sample liquid of 1,000 µg/ml. The bulk was diluted into a series of 2-fold dilutions using sterilized distilled water.
(§2) Separately, the bacterial cell suspensions for the test shown in Table 18 were cultured in Mueller-Hinton broth (DIFCO) at 37°C for 18-20 hours in advance. They were controlled to have a bacterial amount of 10^6 CFU/ml by use of Mueller-Hinton broth. The thus-controlled liquids were inoculated to a Muller-Hinton agar plate containing the sample, followed by culturing at 37°C for 18 hours. The concentration at which bacterial growth was no longer observed was taken as the MIC.

Staphylococcus aureus = experiment: as above; format: cell-based; conditions: 18 h
Description: as §1, §2

[4] = system: various bacterial strains; experiment: MIC by microliquid dilution method (Example 10, Table 45); format: cell-based
Description: Through use of a ketonitrile derivative of the present invention (Compound No. 4) as a sample, minimum inhibitory concentrations (MIC) of respective bacterial strains were determined by a microliquid dilution method in accordance with the standard procedure authorized by Japan Chemotherapy Association ["Chemotherapy", 29, 76-79, 1981, under the heading "Revised Measurement of Minimum Inhibitory Concentration (MIC)"]. The samples were dissolved in dimethylsulfoxide and diluted with the same amount of sterilized distilled water to prepare a bulk sample liquid of 1,000 µg/ml. The bulk sample was cultured in Mueller-Hinton broth at 37°C for 18 hours.

CC(Oc1ccc(Oc2ncc(C(F)(F)F)cc2Cl)cc1)C(=O)C(C#N)c1ccc(Cl)c(Cl)c1 (stereo not drawn) [Compound No. 4, 4-[4-(3-chloro-5-trifluoromethyl-2-pyridyloxy)phenoxy]-2-(3,4-dichlorophenyl)-3-oxopentanonitrile] gave an LD50 at 336 h (in vivo) greater than 2000 mg/kg, an MIC [1] of no more than 1 µg/mL and an MIC [2] of no more than 1 µg/mL. It also gave an MIC [3] of 10 to 100 µg/mL (≈ 18.9 to 189 µM), an MIC (Pasteurella from cattle; Pasteurella Multosida 1F-17, origin Cattle) of 1.56 µg/mL (≈ 2.94 µM) and an MIC (Pasteurella from cattle; Pasteurella haemolytica 1F-15, origin Cattle) of 6.25 µg/mL (≈ 11.8 µM). It also gave an MIC (Staphylococcus aureus; 209P, Staphylococcus aureus 209P, origin Standard strain) of 1.56 µg/mL (≈ 2.94 µM), an MIC (Staphylococcus aureus; Staphylococcus aureus 1SS1, origin Chicken) of 3.13 µg/mL (≈ 5.91 µM) and an MIC (Staphylococcus aureus; Staphylococcus aureus 3-2, origin Pig) of 3.13 µg/mL (≈ 5.91 µM). For the same compound, the MIC (Staphylococcus aureus; Staphylococcus aureus TI-1, origin Cattle) was 6.25 µg/mL (≈ 11.8 µM), the MIC ([4]; 18 h, Staphylococcus aureus SMITH, read-out: MIC) was 3.13 µg/mL (≈ 5.91 µM) and the MIC ([4]; 18 h, Staphylococcus epidermis 56556, read-out: MIC) was 6.25 µg/mL (≈ 11.8 µM). For the same compound, the MIC ([4]; 18 h, Streptococcus mitis 11D 685, read-out: MIC) was 12.5 µg/mL (≈ 23.6 µM), the MIC ([4]; 18 h, Streptococcus pyogenes G-36, read-out: MIC) was 6.25 µg/mL (≈ 11.8 µM) and the MIC ([4]; ATCC6633, 18 h, Bacillus subtilis ATCC 6633, read-out: MIC) was 3.13 µg/mL (≈ 5.91 µM). It also gave an MIC ([4]; ATCC19433, 18 h, Enterococcus faecalis ATCC 19433, read-out: MIC) of 6.25 µg/mL (≈ 11.8 µM), an MIC ([4]; Staphylococcus aureus M5-1 (Methicillin-resistant Staphylococcus aureus)) of 3.13 µg/mL (≈ 5.91 µM) and an MIC ([4]; Staphylococcus aureus M5-2 (Methicillin-resistant Staphylococcus aureus)) of 3.13 µg/mL (≈ 5.91 µM).
